Measured values reported in patent US10799507B2, “5-(7H-pyrrolo[2,3-d]pyrimidin-4-yl)-5-azaspiro[2.5]octane-8-carboxylic acid derivatives as novel JAK kinase inhibitors” (LEO Pharma A/S, priority 2017, dated 2020).

Experiments:
JAK1 = JAK1 (Homo sapiens (Human), UniProt P23458); assay: JAK kinase assay (HTRF), JAK1; assay type: biochemical; details: catalytic domain, ATP at Km (7 μM)
Outline: (§1)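 Catalytic-domain human JAK1 (GST-tagged, aa 850-1154) or His-tagged JAK2, baculovirus-expressed, phosphorylated 1 µM biotinylated TK peptide at Km ATP (JAK1 7 µM, 10 mM MgCl2, 50 nM SEB; JAK2 4 µM, 5 mM MgCl2) in pH 7.0 Hepes, 20-30 min RT. EDTA stop; overnight streptavidin-XL665/cryptate HTRF read.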

TYK2 = TYK2 (Homo sapiens (Human), UniProt P29597); assay: JAK kinase assay (HTRF), TYK2; assay type: biochemical; details: catalytic domain, ATP at Km (13 μM)
Outline: (§2)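 Catalytic-domain human kinases, GST-tagged TYK2 (aa 871-1187) and His-tagged JAK3, phosphorylate 1 μM TK Substrate-Biotin for 20-30 min at RT in 50 mM Hepes pH 7.0, 5 mM MgCl2, ATP at Km (TYK2 13 μM with 50 nM SEB; JAK3 2 μM). Phosphorylation detected by HTRF.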

[1] = in vitro metabolic stability in human liver microsomes; assay type: in vitro ADME; details: human, liver microsomes, 0.5 μM compound, 0.5 mg/mL microsomes, NADPH, 40 min, 37° C.; read-out: Human liver microsome Clapp (apparent intrinsic clearance)
Outline: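 Compounds at 0.5 μM incubated in duplicate with human liver microsomes (0.5 mg/mL), phosphate buffer and NADPH at 37 °C for 40 min, sampled at 0, 5, 10, 20, 40 min into cold acetonitrile. LC-TOF-MS depletion gave elimination rate constant, from which apparent intrinsic clearance (Clapp) was calculated.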

JAK3 = JAK3 (Homo sapiens (Human), UniProt P52333); assay: JAK kinase assay (HTRF), JAK3; assay type: biochemical; details: catalytic domain, ATP at Km (2 μM)
Outline: as §2

JAK2 = JAK2 (Homo sapiens (Human), UniProt O60674); assay: JAK kinase assay (HTRF), JAK2; assay type: biochemical; details: catalytic domain, ATP at Km (4 μM)
Outline: as §1

JAK2, sequence (O60674 849-1124): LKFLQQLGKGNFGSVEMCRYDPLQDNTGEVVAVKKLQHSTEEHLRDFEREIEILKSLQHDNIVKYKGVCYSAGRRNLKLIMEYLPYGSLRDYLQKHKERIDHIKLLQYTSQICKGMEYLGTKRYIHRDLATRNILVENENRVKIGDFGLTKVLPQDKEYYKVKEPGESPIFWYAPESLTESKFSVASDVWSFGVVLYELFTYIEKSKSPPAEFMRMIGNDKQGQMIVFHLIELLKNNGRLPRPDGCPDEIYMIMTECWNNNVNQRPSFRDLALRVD
TYK2, sequence (P29597 871-1187): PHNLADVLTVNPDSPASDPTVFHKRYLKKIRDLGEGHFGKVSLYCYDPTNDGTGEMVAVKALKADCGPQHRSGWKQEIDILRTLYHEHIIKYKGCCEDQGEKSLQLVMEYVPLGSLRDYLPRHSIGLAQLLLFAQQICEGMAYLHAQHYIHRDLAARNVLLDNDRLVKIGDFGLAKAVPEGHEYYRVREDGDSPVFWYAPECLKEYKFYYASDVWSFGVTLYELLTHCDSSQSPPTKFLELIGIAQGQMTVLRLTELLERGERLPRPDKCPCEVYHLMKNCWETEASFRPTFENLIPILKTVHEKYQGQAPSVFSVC
JAK1, sequence (P23458 850-1154): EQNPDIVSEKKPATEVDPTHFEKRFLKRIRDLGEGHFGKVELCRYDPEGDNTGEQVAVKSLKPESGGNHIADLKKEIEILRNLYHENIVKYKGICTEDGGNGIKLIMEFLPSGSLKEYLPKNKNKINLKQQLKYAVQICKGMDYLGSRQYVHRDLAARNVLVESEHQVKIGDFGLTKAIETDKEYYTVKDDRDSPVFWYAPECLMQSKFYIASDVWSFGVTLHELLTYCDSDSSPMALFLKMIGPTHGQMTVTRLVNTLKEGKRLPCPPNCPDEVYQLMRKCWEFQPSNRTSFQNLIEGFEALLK
JAK3, sequence (P52333 822-1111): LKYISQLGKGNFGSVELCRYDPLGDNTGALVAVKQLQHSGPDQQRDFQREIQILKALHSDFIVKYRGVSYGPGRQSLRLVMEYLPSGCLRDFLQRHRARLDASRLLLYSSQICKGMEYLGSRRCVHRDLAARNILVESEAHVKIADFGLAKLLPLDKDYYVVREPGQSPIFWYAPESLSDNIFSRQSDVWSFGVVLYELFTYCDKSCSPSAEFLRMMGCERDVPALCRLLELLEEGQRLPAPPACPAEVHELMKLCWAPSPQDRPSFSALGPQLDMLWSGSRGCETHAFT

SMILES | EC50 (JAK1) [nM] | EC50 (TYK2) [nM] | CLint scaled at 0.5 μM [1] [mL/min/kg] | EC50 (JAK3) [nM] | EC50 (JAK2) [nM]
O=C(NC[C@@H](O)c1ccccc1)[C@H]1CCN(c2ncnc3[nH]ccc23)CC12CC2 [Example 51, (8S)-N-[(2S)-2-hydroxy-2-phenyl-ethyl]-5-(7H-pyrrolo[2,3-d]pyrimidin-4-yl)-5-azaspiro[2.5]octane-8-carboxamide] | 3.5 | 40.5 | > 200 | 49.2 | 11.3
O=C(NCC1(CO)CCCC1)[C@H]1CCN(c2ncnc3[nH]ccc23)CC12CC2 [Example 52, (8S)-N-[[1-(hydroxymethyl)cyclopentyl]methyl]-5-(7H-pyrrolo[2,3-d]pyrimidin-4-yl)-5-azaspiro[2.5]octane-8-carboxamide] | 3.6 | 38 | 118 | 22.8 | 10.2
Cc1cc([C@H](CO)NC(=O)[C@H]2CCN(c3ncnc4[nH]ccc34)CC23CC3)ccc1C#N [Example 54, (8S)-N-[(1R)-1-(4-cyano-3-methyl-phenyl)-2-hydroxy-ethyl]-5-(7H-pyrrolo[2,3-d]pyrimidin-4-yl)-5-azaspiro[2.5]octane-8-carboxamide] | 3.6 | 135 | 142 | 33 | 13.5
O=C(NCC1CC(F)(F)C1)C1CCN(c2ncnc3[nH]ccc23)CC12CC2 (centres unmarked) [Example 56, N-[(3,3-difluorocyclobutyl)methyl]-5-(7H-pyrrolo[2,3-d]pyrimidin-4-yl)-5-azaspiro[2.5]octane-8-carboxamide] | 3.9 | 170 | 63 | 18.1 | 8.3
C[C@@](CO)(NC(=O)[C@H]1CCN(c2ncnc3[nH]ccc23)CC12CC2)c1ccc(C#N)cn1 [Example 57, (8S)-N-[(1R)-1-(5-cyano-2-pyridyl)-2-hydroxy-1-methyl-ethyl]-5-(7H-pyrrolo[2,3-d]pyrimidin-4-yl)-5-azaspiro[2.5]octane-8-carboxamide] | 4.1 | 193 | 39 | 21.3 | 9
O=C(NCC1(CO)CCCC1)C1CCN(c2ncnc3[nH]ccc23)CC12CC2 (centres unmarked) [Example 58, N-[[1-(hydroxymethyl)cyclopentyl]methyl]-5-(7H-pyrrolo[2,3-d]pyrimidin-4-yl)-5-azaspiro[2.5]octane-8-carboxamide] | 4.1 | 142 | 143 | 30.3 | 13
N#CC1CC(CNC(=O)C2CCN(c3ncnc4[nH]ccc34)CC23CC3)C1 (centres unmarked) [Example 59, N-[(3-cyanocyclobutyl)methyl]-5-(7H-pyrrolo[2,3-d]pyrimidin-4-yl)-5-azaspiro[2.5]octane-8-carboxamide] | 4.2 | 322 | 28 | 24.5 | 12.1
O=C(NCC1CC(F)(F)C1)[C@H]1CCN(c2ncnc3[nH]ccc23)CC12CC2 [Example 62, (8S)-N-[(3,3-difluorocyclobutyl)methyl]-5-(7H-pyrrolo[2,3-d]pyrimidin-4-yl)-5-azaspiro[2.5]octane-8-carboxamide] | 4.5 | 47.5 | 48 | 15.7 | 7
O=C(NC[C@@H](O)c1ccccc1)C1CCN(c2ncnc3[nH]ccc23)CC12CC2 (stereo partly drawn) [Example 63, N-[(2S)-2-hydroxy-2-phenyl-ethyl]-5-(7H-pyrrolo[2,3-d]pyrimidin-4-yl)-5-azaspiro[2.5]octane-8-carboxamide] | 4.5 | 147 | > 200 | 58.5 | 15.9
Cc1ccc([C@H](O)CNC(=O)[C@H]2CCN(c3ncnc4[nH]ccc34)CC23CC3)cc1 [Example 64, (8S)-N-[(2S)-2-hydroxy-2-(p-tolyl)ethyl]-5-(7H-pyrrolo[2,3-d]pyrimidin-4-yl)-5-azaspiro[2.5]octane-8-carboxamide] | 4.5 | 90.9 | > 200 | 28.5 | 6.7
O=C(NCC1(O)CCC1)[C@H]1CCN(c2ncnc3[nH]ccc23)CC12CC2 [Example 68, (8S)-N-[(1-hydroxycyclobutyl)methyl]-5-(7H-pyrrolo[2,3-d]pyrimidin-4-yl)-5-azaspiro[2.5]octane-8-carboxamide] | 5.1 | 78.1 | 23 | 29.6 | 11.8
O=C(N[C@@H](CO)c1ccccc1)C1CCN(c2ncnc3[nH]ccc23)CC12CC2 (stereo partly drawn) [Example 69, N-[(1R)-2-hydroxy-1-phenyl-ethyl]-5-(7H-pyrrolo[2,3-d]pyrimidin-4-yl)-5-azaspiro[2.5]octane-8-carboxamide] | 5.1 | 298 | 44 | 29.1 | 12
O=C(NCC1(O)CCCCC1)[C@H]1CCN(c2ncnc3[nH]ccc23)CC12CC2 [Example 74, (8S)-N-[(1-hydroxycyclohexyl)methyl]-5-(7H-pyrrolo[2,3-d]pyrimidin-4-yl)-5-azaspiro[2.5]octane-8-carboxamide] | 6.1 | 55.7 | 37 | 23.2 | 15.3
O=C(NCC1CCCC1)C1CCN(c2ncnc3[nH]ccc23)CC12CC2 (centres unmarked) [Example 82, N-(cyclopentylmethyl)-5-(7H-pyrrolo[2,3-d]pyrimidin-4-yl)-5-azaspiro[2.5]octane-8-carboxamide] | 6.8 | 400 | 198 | 38.7 | 11.5
C[C@H](NC(=O)C1CCN(c2ncnc3[nH]ccc23)CC12CC2)c1cccc(C#N)c1 (stereo partly drawn) [Example 86, N-[(1S)-1-(3-cyanophenyl)ethyl]-5-(7H-pyrrolo[2,3-d]pyrimidin-4-yl)-5-azaspiro[2.5]octane-8-carboxamide] | 7.1 | 47.7 | > 200 | 38 | 11.3
O=C(N[C@H](CO)C(=O)OCC1CC1)[C@H]1CCN(c2ncnc3[nH]ccc23)CC12CC2 [Example 91, cyclopropylmethyl (2R)-3-hydroxy-2-[[(8S)-5-(7H-pyrrolo[2,3-d]pyrimidin-4-yl)-5-azaspiro[2.5]octane-8-carbonyl]amino]propanoate] | 8.2 | 163 | 17 | 47.3 | 17.7
N#Cc1ccc([C@@H](CO)NC(=O)C2CCN(c3ncnc4[nH]ccc34)CC23CC3)cc1 (stereo partly drawn) [Example 94, N-[(1S)-1-(4-cyanophenyl)-2-hydroxy-ethyl]-5-(7H-pyrrolo[2,3-d]pyrimidin-4-yl)-5-azaspiro[2.5]octane-8-carboxamide] | 8.6 | 967 | 23 | 91.1 | 53.7
O=C(NCc1ccccc1)C1CCN(c2ncnc3[nH]ccc23)CC12CC2 (centres unmarked) [Example 95, N-benzyl-5-(7H-pyrrolo[2,3-d]pyrimidin-4-yl)-5-azaspiro[2.5]octane-8-carboxamide] | 8.6 | 502 | 135 | 31.6 | 17.9
O=C(NC[C@H](O)c1ccccc1)C1CCN(c2ncnc3[nH]ccc23)CC12CC2 (stereo partly drawn) [Example 103, N-[(2R)-2-hydroxy-2-phenyl-ethyl]-5-(7H-pyrrolo[2,3-d]pyrimidin-4-yl)-5-azaspiro[2.5]octane-8-carboxamide] | 9.9 | 509 | 128 | 40.6 | 21.4
O=C(N[C@@H](CO)[C@@H](O)c1ccc(F)cn1)[C@H]1CCN(c2ncnc3[nH]ccc23)CC12CC2 [Example 105, (8S)-N-[(1S,2R)-2-(5-fluoro-2-pyridyl)-2-hydroxy-1-(hydroxymethyl)ethyl]-5-(7H-pyrrolo[2,3-d]pyrimidin-4-yl)-5-azaspiro[2.5]octane-8-carboxamide] | 10.2 | 153 | 15 | 56 | 11.2
C[C@@H](NC(=O)C1CCN(c2ncnc3[nH]ccc23)CC12CC2)c1ccc(C#N)cc1 (stereo partly drawn) [Example 111, N-[(1R)-1-(4-cyanophenyl)ethyl]-5-(7H-pyrrolo[2,3-d]pyrimidin-4-yl)-5-azaspiro[2.5]octane-8-carboxamide] | 11.2 | 930 | 111 | 123 | 52.1
O=C(N[C@H](CO)c1ccccc1)C1CCN(c2ncnc3[nH]ccc23)CC12CC2 (stereo partly drawn) [Example 127, N-[(1S)-2-hydroxy-1-phenyl-ethyl]-5-(7H-pyrrolo[2,3-d]pyrimidin-4-yl)-5-azaspiro[2.5]octane-8-carboxamide] | 19.9 | 1100 | 44 | 68.1 | 52.1
